Numbers after ± are expanded uncertainties.
Test: refractive index (Na D-line) (dimensionless); xn = mol fraction of the nth substance listed
Conditions: 102.2 kPa, Liquid, Standard Abbe refractometry

C[Si](C)(O[Si](C)(C)c1ccccc1)c1ccccc1 [1,3-diphenyltetramethyldisiloxane] + C=C[Si]1(C)O[Si](C)(C=C)O[Si](C)(C=C)O[Si](C)(C=C)O1
refractive index
Conditions	308.15 K	313.15 K	318.15 K	323.15 K	328.15 K
x1 = 0.0511	1.43117 ± 0.00035	1.4288 ± 0.0004	1.42643 ± 0.00035	1.42402 ± 0.00035	1.42168 ± 0.00035
x1 = 0.1004	1.43477 ± 0.00035	1.43241 ± 0.00035	1.43005 ± 0.00035	1.42765 ± 0.00035	1.42534 ± 0.00035
x1 = 0.1503	1.43849 ± 0.00035	1.4361 ± 0.00035	1.43374 ± 0.00035	1.43138 ± 0.00035	1.42904 ± 0.00035
x1 = 0.2	1.44222 ± 0.00035	1.43984 ± 0.00035	1.4375 ± 0.00035	1.43511 ± 0.00035	1.43277 ± 0.00035
x1 = 0.2537	1.4463 ± 0.00035	1.44393 ± 0.00035	1.44162 ± 0.00035	1.43922 ± 0.00035	1.43688 ± 0.00035
x1 = 0.3001	1.4499 ± 0.00035	1.44754 ± 0.00035	1.44521 ± 0.00035	1.44282 ± 0.00035	1.44051 ± 0.00035
x1 = 0.3507	1.45386 ± 0.00035	1.4515 ± 0.00035	1.44918 ± 0.00035	1.44682 ± 0.00035	1.44446 ± 0.00035
x1 = 0.4002	1.4578 ± 0.00035	1.45544 ± 0.00035	1.45312 ± 0.00035	1.45075 ± 0.00035	1.4484 ± 0.00035
x1 = 0.4503	1.46186 ± 0.00035	1.45951 ± 0.00035	1.45719 ± 0.00035	1.45481 ± 0.00035	1.45253 ± 0.00035
x1 = 0.4999	1.4659 ± 0.00035	1.46356 ± 0.00035	1.46122 ± 0.00035	1.45885 ± 0.00035	1.45654 ± 0.00035
x1 = 0.5501	1.47011 ± 0.00035	1.46778 ± 0.00035	1.46545 ± 0.00035	1.46309 ± 0.00035	1.46081 ± 0.00035
x1 = 0.597	1.47406 ± 0.00035	1.47174 ± 0.00035	1.46939 ± 0.00035	1.46705 ± 0.00035	1.46474 ± 0.00035
x1 = 0.6498	1.47861 ± 0.00035	1.47627 ± 0.00035	1.47398 ± 0.00035	1.47166 ± 0.00035	1.46934 ± 0.00035
x1 = 0.7005	1.48302 ± 0.00035	1.48067 ± 0.00035	1.47836 ± 0.00035	1.47601 ± 0.00035	1.47373 ± 0.00035
x1 = 0.7492	1.48734 ± 0.00035	1.48502 ± 0.00035	1.48271 ± 0.00035	1.48037 ± 0.00035	1.47809 ± 0.00035
x1 = 0.8001	1.49193 ± 0.00035	1.48963 ± 0.00035	1.4873 ± 0.00035	1.48499 ± 0.00035	1.48269 ± 0.00035
x1 = 0.8497	1.49647 ± 0.00035	1.49417 ± 0.00035	1.49187 ± 0.00035	1.4896 ± 0.00035	1.48727 ± 0.00035
x1 = 0.8999	1.50106 ± 0.00035	1.49877 ± 0.00035	1.49645 ± 0.00035	1.49415 ± 0.00035	1.4918 ± 0.0004
x1 = 0.9502	1.50586 ± 0.00035	1.50356 ± 0.00035	1.50122 ± 0.00035	1.49894 ± 0.00035	1.49665 ± 0.00035
x1 = 1	1.51066 ± 0.00035	1.50836 ± 0.00035	1.5061 ± 0.0004	1.50381 ± 0.00035	1.5015 ± 0.0004

C[Si](C)(O[Si](C)(C)c1ccccc1)c1ccccc1 [1,3-diphenyltetramethyldisiloxane] + C=C[Si](C)(C)O[Si](C)(C)C=C
refractive index
Conditions	308.15 K	313.15 K	318.15 K	323.15 K	328.15 K
x1 = 0.0502	1.41155 ± 0.00036	1.40892 ± 0.00036	1.40628 ± 0.00036	1.40366 ± 0.00036	1.40099 ± 0.00036
x1 = 0.1	1.41834 ± 0.00036	1.41574 ± 0.00036	1.41315 ± 0.00036	1.41057 ± 0.00036	1.40797 ± 0.00036
x1 = 0.1487	1.42478 ± 0.00036	1.42224 ± 0.00036	1.41967 ± 0.00036	1.41713 ± 0.00036	1.41456 ± 0.00036
x1 = 0.2002	1.43134 ± 0.00035	1.42886 ± 0.00035	1.42631 ± 0.00035	1.42381 ± 0.00035	1.42128 ± 0.00035
x1 = 0.2498	1.43748 ± 0.00035	1.43501 ± 0.00035	1.43251 ± 0.00035	1.43004 ± 0.00035	1.4275 ± 0.00035
x1 = 0.3	1.44347 ± 0.00035	1.44103 ± 0.00035	1.43853 ± 0.00035	1.43607 ± 0.00035	1.43356 ± 0.00035
x1 = 0.3503	1.4493 ± 0.00035	1.44687 ± 0.00035	1.4444 ± 0.00035	1.44199 ± 0.00035	1.43951 ± 0.00035
x1 = 0.3994	1.45477 ± 0.00035	1.45239 ± 0.00035	1.44994 ± 0.00035	1.44752 ± 0.00035	1.44508 ± 0.00035
x1 = 0.4502	1.46032 ± 0.00035	1.45792 ± 0.00035	1.45549 ± 0.00035	1.45314 ± 0.00035	1.45071 ± 0.00035
x1 = 0.5001	1.46558 ± 0.00035	1.46321 ± 0.00035	1.46081 ± 0.00035	1.45844 ± 0.00035	1.45605 ± 0.00035
x1 = 0.5498	1.47066 ± 0.00035	1.46834 ± 0.00035	1.46594 ± 0.00035	1.4636 ± 0.00035	1.4612 ± 0.00035
x1 = 0.6002	1.47565 ± 0.00035	1.47332 ± 0.00035	1.47093 ± 0.00035	1.46859 ± 0.00035	1.46619 ± 0.00035
x1 = 0.6502	1.48048 ± 0.00035	1.47816 ± 0.00035	1.47577 ± 0.00035	1.47346 ± 0.00035	1.47107 ± 0.00035
x1 = 0.7004	1.48515 ± 0.00035	1.48285 ± 0.00035	1.48049 ± 0.00035	1.47821 ± 0.00035	1.47583 ± 0.00035
x1 = 0.7504	1.48971 ± 0.00035	1.48739 ± 0.00035	1.48506 ± 0.00035	1.48275 ± 0.00035	1.48038 ± 0.00035
x1 = 0.8003	1.4941 ± 0.0004	1.49177 ± 0.00035	1.48948 ± 0.00035	1.48715 ± 0.00035	1.48483 ± 0.00035
x1 = 0.8498	1.49836 ± 0.00035	1.49606 ± 0.00035	1.49375 ± 0.00035	1.49142 ± 0.00035	1.48912 ± 0.00035
x1 = 0.8986	1.50242 ± 0.00035	1.50013 ± 0.00035	1.49781 ± 0.00035	1.49552 ± 0.00035	1.4932 ± 0.00035
x1 = 0.9502	1.50659 ± 0.00035	1.50428 ± 0.00035	1.50198 ± 0.00035	1.49974 ± 0.00035	1.49743 ± 0.00035
x1 = 1	1.51052 ± 0.00035	1.5082 ± 0.0004	1.50593 ± 0.00035	1.50366 ± 0.00035	1.50133 ± 0.00035

C[Si](C)(O[Si](C)(C)c1ccccc1)c1ccccc1 [1,3-diphenyltetramethyldisiloxane] + C[Si]1(C)O[Si](C)(C)O[Si](C)(C)O[Si](C)(C)O1
refractive index
Conditions	308.15 K	313.15 K	318.15 K	323.15 K	328.15 K
x1 = 0.05	1.3951 ± 0.00036	1.39261 ± 0.00036	1.3901 ± 0.0004	1.38762 ± 0.00036	1.38512 ± 0.00036
x1 = 0.0999	1.40098 ± 0.00036	1.39849 ± 0.00036	1.39602 ± 0.00036	1.39357 ± 0.00036	1.39102 ± 0.00036
x1 = 0.1503	1.40694 ± 0.00036	1.40447 ± 0.00036	1.40199 ± 0.00036	1.39957 ± 0.00036	1.39707 ± 0.00036
x1 = 0.2005	1.41292 ± 0.00036	1.41044 ± 0.00036	1.40799 ± 0.00036	1.40557 ± 0.00036	1.40311 ± 0.00036
x1 = 0.2507	1.41891 ± 0.00036	1.41644 ± 0.00036	1.41401 ± 0.00036	1.41159 ± 0.00036	1.40913 ± 0.00036
x1 = 0.2963	1.42436 ± 0.00036	1.42193 ± 0.00036	1.41951 ± 0.00036	1.41708 ± 0.00036	1.41464 ± 0.00036
x1 = 0.3509	1.43091 ± 0.00036	1.42847 ± 0.00036	1.42607 ± 0.00036	1.42366 ± 0.00036	1.42126 ± 0.00036
x1 = 0.4001	1.43683 ± 0.00036	1.4344 ± 0.00036	1.43201 ± 0.00036	1.42964 ± 0.00036	1.42721 ± 0.00036
x1 = 0.4471	1.44251 ± 0.00036	1.44009 ± 0.00036	1.4377 ± 0.0004	1.4353 ± 0.0004	1.4329 ± 0.00036
x1 = 0.4968	1.44855 ± 0.00035	1.44616 ± 0.00035	1.44376 ± 0.00035	1.44142 ± 0.00035	1.43901 ± 0.00035
x1 = 0.5512	1.45518 ± 0.00035	1.45281 ± 0.00035	1.45043 ± 0.00035	1.44806 ± 0.00035	1.44571 ± 0.00035
x1 = 0.6003	1.46117 ± 0.00035	1.45878 ± 0.00035	1.45644 ± 0.00035	1.45407 ± 0.00035	1.45173 ± 0.00035
x1 = 0.6502	1.46727 ± 0.00035	1.46493 ± 0.00035	1.46256 ± 0.00035	1.46023 ± 0.00035	1.45785 ± 0.00035
x1 = 0.7001	1.47342 ± 0.00035	1.47107 ± 0.00035	1.46872 ± 0.00035	1.46638 ± 0.00035	1.46407 ± 0.00035
x1 = 0.7497	1.47954 ± 0.00035	1.47718 ± 0.00035	1.47488 ± 0.00035	1.47255 ± 0.00035	1.47021 ± 0.00035
x1 = 0.8	1.48577 ± 0.00035	1.48342 ± 0.00035	1.48109 ± 0.00035	1.47882 ± 0.00035	1.47646 ± 0.00035
x1 = 0.85	1.49197 ± 0.00035	1.48966 ± 0.00035	1.48733 ± 0.00035	1.48504 ± 0.00035	1.48273 ± 0.00035
x1 = 0.896	1.49768 ± 0.00035	1.49532 ± 0.00035	1.49303 ± 0.00035	1.49072 ± 0.00035	1.48841 ± 0.00035
x1 = 0.9497	1.50436 ± 0.00035	1.50202 ± 0.00035	1.49976 ± 0.00035	1.49748 ± 0.00035	1.49518 ± 0.00035
x1 = 1	1.51064 ± 0.00035	1.50832 ± 0.00035	1.50605 ± 0.00035	1.50377 ± 0.00035	1.50144 ± 0.00035

From the NIST ThermoML archive (doi:10.1021/acs.jced.5b00820)
